# Results as given in patent US20230181905A1, “Systems, Devices, and Methods for Enhancing the Neuroprotective Effects of Non-Invasive Gamma Stimulation with Pharmacological Agents” (Massachusetts Institute of Technology, priority 2021, published 2023).
# Tested on: amyloid
# Assay: Amyloid immunohistochemistry in APP.PS1 mice
# Format: in vivo, mouse
# Details: 11-month-old APP.PS1 mice
# Experimental: 11-month-old APP.PS1 mice were either a) untreated as control, b) treated with GENUS alone (40 Hz light flicker delivered for 1 hour/day for 30 days), or c) a combination of GENUS (40 Hz delivered for 1 hour/day for 30 days) and levetiracetam (10 mg/kg body weight, intraperitoneal injection daily for 30 days), an agent shown to offer benefits in AD model mice. After the treatment mice were transcardially perfused with ice cold phosphate buffered saline (PBS) followed by 4% paraformaldehyde in PBS. Forty micron brain slices were prepared, and immunohistochemistry was then performed to evaluate the amyloid levels.
compound,measurement,setting,value
CC[C@@H](C(N)=O)N1CCCC1=O [levetiracetam],amyloid levels in the visual cortex relative to treatment with GENUS alone,levetiracetam 10 mg/kg i.p. daily 30 days co-administered with GENUS,higher
same,effect of GENUS on amyloid levels,levetiracetam 10 mg/kg i.p. daily 30 days co-administered with GENUS 1 hour/day,dampened or attenuated
